Source: the METLIN SMRT retention time set (Domingo-Almenara et al. 2019)

Assay: gradient 5% acetonitrile 3 min, to 50% in 2 min, to 85% in 15 min, held 3 min, 100 µL/min
Details: column: Zorbax Extend-C18 2.1 x 50 mm; eluents: water / acetonitrile, 0.1% formic acid
Summary of the method: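 Mixtures of ~100 pure standards were chromatographed on a Zorbax Extend-C18 column (2.1 × 50 mm, 1.8 μm) at 100 μL/min using water and acetonitrile, each with 0.1% formic acid. Detection used a quadrupole time-of-flight mass spectrometer in positive and negative ionization mode, and data collection spanned 3 months. Retention time was obtained from adduct peaks picked computationally and each checked manually.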

Compound | RP-LC retention time [s]
CCOc1ccc(S(=O)(=O)N2CCCC2c2nc(-c3ccc(Cl)cc3)no2)cc1 (stereo unspecified) | 1230
Cn1nccc1-c1cccc(-c2noc(-c3cc(F)ccc3Cl)n2)c1 | 1190
CCOC(=O)c1[nH]c(C)c(CCC(=O)N2CCC(C(=O)NCc3ccc(Cl)cc3)CC2)c1C | 828
Cc1ccc(CSc2nccc3c2ccn3CC(=O)NCCN2CCN(C)CC2)cc1 | 589
NC(=O)c1ccc2c(c1)CCN2C(=O)C1CCCC1 | 698
COc1ccc(CNC(=O)Cn2nc(C)c3sc(-c4ccccc4)nc3c2=O)cc1 | 846
Cc1sc(-c2cc(C(F)(F)F)on2)cc1S(=O)(=O)NC1CC1 | 1040
Cc1ccc(S(=O)(=O)Nc2ccc3c(c2)CCC(=O)N3)cc1Cl | 766
CS(=O)(=O)Nc1cccc(NC(=O)c2ccc(N3CCCC3)nn2)c1 | 598
CC(C)CCNC(=O)C1CCCN(S(=O)(=O)c2ccc3nc(-c4ccccc4)[nH]c3c2)C1 (stereo unspecified) | 841
CCCCCn1c(=O)c2ccccc2n(Cc2nc(-c3ccc(Cl)cc3)no2)c1=O | 1340
COc1cccc(N2CCN(C(=O)C3CCN(S(=O)(=O)c4cn(C(C)C)cn4)CC3)CC2)c1 | 764
Cn1nccc1-c1cccc(-c2noc(-c3cnccn3)n2)c1 | 786
Cc1nnc2cc(N3CCN(Cc4ccc(C(C)C)cc4)CC3)cnn12 | 613
Cc1nc(-c2ccccc2)nc2c1CC(=O)N2Cc1cccnc1 | 616
Cc1nn(-c2ccc(C(=O)NCc3cccs3)cc2)c2c1C(=O)CC(C)(C)C2 | 841
O=C(Cn1nc(C(=O)N2CCCC2)c2ccccc21)NCc1ccc(F)cc1 | 780
Cn1cc(CN2CC(F)(F)C[C@H]2COc2ccncc2)c2ccccc21 | 634

Compound | RP-LC retention time [s]
COc1ccc(F)cc1S(=O)(=O)NC1CCc2nnc(C)n2CC1 (stereo unspecified) | 613
Cc1ccc(-c2noc(Cn3c(=O)n(-c4ccccc4C)c(=O)c4sccc43)n2)cc1C | 1110
O=S(=O)(c1ccc2c(c1)OCCO2)N1CCN(S(=O)(=O)C2CC2)CC1 | 762
Cc1ccc(C(=O)N2CCC(COc3ccc(C(=O)NC4CC4)cc3)CC2)cc1C | 887
CC1CCN(S(=O)(=O)c2cccc(-c3nc(-c4ccccc4)no3)c2)CC1 | 1360
O=C(NCCc1c[nH]c2ccccc12)C1CCCN1c1nnc(N2CCCC2=O)s1 (stereo unspecified) | 690
CCOc1ccc(NC(=O)c2c(NC(C)=O)sc3c2CCCC3)cc1 | 1090
O=C(Cn1c(=O)c(S(=O)(=O)c2ccccc2)cc2ccccc21)NC1CCCCC1 | 894
COc1ccccc1NC(=O)C1CCCN(S(=O)(=O)c2cc(-c3noc(C)n3)cs2)C1 (stereo unspecified) | 964
Cc1noc([C@@H]2CN(Cc3ccc(F)cc3F)C[C@H]2CO)n1 | 580
CCOc1ccc(NC(=O)N2CCC3(CC2)NC(=O)c2ccccc2O3)cc1 | 739
O=C(Cc1ccc(Cl)cc1)NC1CCN(c2nnc3ccccn23)CC1 | 656
Cn1nc2n(c1=O)CCC(NS(=O)(=O)c1cccc3cccnc13)CC2 (stereo unspecified) | 648
Cc1cc(F)ccc1NC(=O)CN1C(=O)CCCc2cc(S(=O)(=O)N3CCCCC3)ccc21 | 959
Cc1ccn2c(Nc3ccccc3C)c(-c3c(F)cccc3Cl)nc2c1 | 766
Cn1nc(-c2nnc(-c3ccc(F)cc3)o2)c2c1CCN(S(=O)(=O)c1ccccc1Cl)C2 | 990
CCOC(=O)c1ccc(Nc2c(C(=O)N3CCC(C)CC3)cnc3nc(C)ccc23)cc1 | 675
CNC(=O)c1cc[nH]c1C1CCCN(C(=O)C2CC=CCC2)C1 (stereo unspecified) | 672
